Where two headings read alike, the source gives them in different places.
Columns and labels:
[1] = system: pancreatic cancer metastasis from the liver; test: PDX efficacy study with Gemcitabine (Example 10); format: in vivo, NodScid mice
Description: Experimental system: Patient-derived xenograft (PDX) of a biopsy of pancreatic cancer metastasis from the liver, subcutaneous implanted into NodScid mice.
• Implantation of pancreatic cancer metastasis from the liver RA_160 tumor biopsy graft (P5) into NodScid mice for efficacy study: Several weeks following implantation of pancreatic cancer liver metastasis biopsy graft in mice, tumor cells (P5) were injected into NodScid mice (generated by in-house breeding), using the same procedure described above. • Onset of tumor growth (palpable tumor mass) was detected ten days following cell injection. A week later (on da0), 19 mice with average tumor size of 90 mm^3 initiated treatments with Gemcitabine 25 mg/kg IP twice a week for 35 days. […] On day21 the average tumor size in Gemcitabine-treated group was ˜5 mm^3 as compared to 1400 mm^3 in the control group. • 42 days following initiation of treatment with Gemcitabine resistance developed and regressed tumors progressed. Four days later 16 mice of the Gemcitabine-treated group with average tumor volume of ˜110 mm^3 were divided to two groups as follows. II. Treatments
Treatment groups, following resistance to Gemcitabine has been acquired, included: • 1. Gemcitabine 25 mg/kg IP twice a week • 2. Gemcitabine 25 mg/kg IP+Compound D 70 mg/kg IV, twice a week.

[2] = system: tumor pieces of pancreatic cancer liver metastasis PDX; test: Culture of tumor pieces excised at the end of the experiment (Example 10); format: cell-based; details: three tumors per group; fixed and stained nine days later
Description: At the end of the experiment, tumor pieces, similar in size, from three tumors per group were cultured in separate plates to test their viability and proliferative activity.

[3] = system: Adenoid Cyctic Carcinoma tumor biopsy; test: PDX efficacy study with Trametinib (Example 9); format: in vivo, NodScid mice; details: day0-day13; start ~65 mm^3; Trametinib 1 mg/kg PO, Compound D 70 mg/kg IV
Description: Experimental system: Patient-derived xenograft (PDX) of Adenoid Cyctic Carcinoma tumor biopsy subcutaneous implanted into NodScid mice.
• Biopsy: Fresh human primary Adenoid Cyctic Carcinoma tumor biopsy. […] The mice were randomly divided into treatment groups including 5 animals/group. The vehicle-treated group included 4 mice. II. Treatments and Procedures
Treatment groups included: • 1. Vehicle-control: vehicle of Trametinib (5% Propylene Glycol, 0.5% Tween-80, 30% PEG 400 in Sterile DDW) 200 μl PO (5 times/week, qd). • 2. […] Trametinib 1 mg/kg PO (5 times/week, qd). • 4.
(§6) The length (l) and the width (w) of the tumors were measured 2-4 times a week and the volumes of the tumors were calculated as follows: v=lw^2/2.

HCT15 = test: Cell proliferation and viability, methylene-blue staining; format: cell-based; details: Homo sapiens, HCT-15, 72 h; HCT15, colon cancer; 3 days exposure
Description: Cells were grown in complete medium and treated with inhibitors one day following seeding. 72 hours later, the surviving cells were quantified by methylene blue staining or by WST-1 staining for nonadherent cells (Roche). Cells were plated in 96-well plates in 5-10% FCS in medium; a day later exposed to various concentrations of compound A, compound D or OSI-906 and 3 days later stained with methylene-blue and the relative cell number was quantified.

[4] = system: Squamous Cell carcinoma of Head&Neck (SCCHN) tumor biopsy; test: PDX efficacy study, acquired resistance to Erlotinib (Example 1); details: start ~80 mm^3; Erlotinib 100 mg/kg PO, Compound D 70 mg/kg IV; two weeks
Mel1617-Pa = test: Cell proliferation and viability, methylene-blue staining; format: cell-based; details: Homo sapiens, 72 h, melanoma, 3 days exposure
Description: (§1) All melanoma cells used and discussed in FIGS. 6-9 and table 1 are from human origin and bearing the mutated BRAF^600K/E.
(§2) Cells were grown in complete medium and treated with inhibitors one day following seeding. 72 hours later, the surviving cells were quantified by methylene blue staining or by WST-1 staining for nonadherent cells (Roche).
(§3) Cells were plated in 96-well plates in 5-10% FCS in medium; a day later exposed to various concentrations of compound A, compound D or OSI-906 and 3 days later stained with methylene-blue and the relative cell number was quantified.

Mel1617-BR = test: as above; format: cell-based; details: Homo sapiens, 72 h, melanoma, 3 days exposure
Description: as §1, §2, §3

[5] = system: Uteral AdenoSarcoma biopsy; test: PDX efficacy study with Afinitor, repeat (Example 5A); format: in vivo, NodScid mice; details: Afinitor 5 mg/kg PO, Compound D 70 mg/kg IV
Description: The experiment described in Example 4 was repeated in purchased mice from Harlan.
• 1. […] Afinitor 5 mg/kg PO, 4 times a week (17 mice). • 4.

HNSCC tumor biopsy = test: PDX efficacy study, tumor recurrence after Cetuximab±Afatinib (Example 7); format: in vivo, NodScid mice; details: 9 days of treatment; start ~113 mm^3
Description: Experimental system: Patient-derived xenograft (PDX) of HNSCC tumor biopsy subcutaneous implanted into NodScid mice.
• Implantation of HNSCC tumor biopsy graft (P6) into NodScid mice for efficacy study: Few months following implantation of frozen HNSCC tumor biopsy graft (P1) in mice, tumor cells (P6) were injected into NodScid mice (generated by in-house breeding), using the same procedure described for implantation of P1. The original biopsy is the same as described above and the P indicates passages (implantation number in mice). • Onset of tumor growth (palpable tumor mass) was detected four days following cell injection. Five days later, treatments initiated in mice which developed tumors sized around 113 mm^3. […] Treatments and Procedures
Treatment groups included: • 1. Vehicle-control: Vehicle (0.5% Hydroxymethyl-cellulose, 0.4% Tween-80) 200 μl PO (5 times/week, qd). • 2. Compound D 70 mg/kg in HPbCD, IV (3 times/week, qod). • 3.
as §6

HepG2 = test: Cell proliferation and viability, methylene-blue staining; format: cell-based; details: Homo sapiens, 72 h; HepG2, hepatocarcinoma; 3 days exposure
Description: as §2, §3

PC3 = test: as above; format: cell-based; details: Homo sapiens, PC-3, 72 h; PC3, prostate cancer; 3 days exposure
Description: as §2, §3

[6] = system: pStat3 in 451-LU-BR, Mel1617-BR and patient cells M2068, M571; test: Immunoblot of pStat3 in BRAFi-resistant melanoma cells; format: cell-based, human
Description: FIGS. 8A-8D. […] FIG. 8C. […] FIG. 8D. Cells of various cancer types were treated with compound D for 4 hr in serum-free medium, and 20 hr in medium with or without 10% serum. Asterisks indicate 10 μM concentration for RPMI8226 and HepG2 cells.
(§4) • Cells were treated as indicated in FIGS. 6-9 and the corresponding figure legends, following overnight serum-starvation (unless indicated differently). When cells were treated with both PLX4032 and compounds A or D, PLX4032 was added 3-4 hr following the compounds. • Cells were lysed with boiling sample buffer (10% glycerol, 50 mmol/L Tris-HCl, pH 6.8, 3% SDS, and 5% 2-mercaptoethanol). Western blot analysis was conducted in 8% SDS-PAGE, using antibodies described below. • Aliquots of cell extracts containing equal amounts of protein were resolved by 8% SDS/PAGE and electroblotted onto nitrocellulose filters. The membranes were blocked with low-fat milk diluted 1:20 in TBST (NaCl/Tris containing 0.2% Tween-20) for 0.5 hr, incubated with Rabbit anti-phosphoY705-Stat3 antibody (Cell signaling cat #9131), Mouse anti-ERK-diphosphorylated-YT (Sigma Aldrich cat #M8159) or anti-PARP antibodies overnight at 4 C in 5% BSA in TBST containing 0.05% azid, washed extensively with TBST and then incubated with horseradish peroxidase-conjugated secondary antibodies for 45 min at room temperature in 5% BSA in TB ST. • Immunoreactive bands were visualized using enhanced chemiluminescence. Membranes were re-blotted with Mouse anti-Stat3 antibody (Transduction labs cat #21320) or with Rabbit anti AKT1/2 (Santa cruz cat #sc-8312) or Anti-Actin as described above. IV. Chemotaxis of Peripheral Blood Mononuclear Cells (PBMCs)

MM1S = test: Cell proliferation and viability; format: cell-based; details: Homo sapiens, MM1.S, 72 h, multiple myeloma, 3 days exposure
Description: as §2, §3

[7] = system: colon metastatic carcinoma biopsy; test: PDX efficacy study with Cetuximab and FOLFIRI (Example 12); format: in vivo, NodScid mice; details: start ~110 mm^3; 14 days
Description: Experimental system: Patient-derived xenograft (PDX) of human primary colon metastatic carcinoma biopsy subcutaneous implanted into NodScid mice.
The length (l) and the width (w) of the tumors were measured 4 times a week and the volume of the tumors were calculated as follows: v=lw^2/2.

A375 melanoma cells = test: Apoptosis after short exposure and wash-out; format: cell-based, human; details: 4 hr exposure, washed; 24 and 48 hr later (FIG. 6C)
Description: as §4, with “Chemotaxis of Peripheral Blood Mononuclear Cells (PBMCs)” left out

451Lu-Pa = test: Cell proliferation and viability, methylene-blue staining; format: cell-based; details: Homo sapiens, 72 h, melanoma, 3 days exposure
Description: (§5) All cell lines were obtained from the American Type Culture Collection. YUMAC, YURIF, YUSIK (all human melanoma, kindly provided by Prof. Ruth Halaban, Yale University, New Haven, Conn.) were cultured in OptiMEM containing 5% FCS. M571, M2068, M560n (all human melanoma, kindly provided by Dr. Michal Lotem, Hadassah Hospital, Jerusalem, Israel) were maintained in RPMI, DMEM and F12 (1:3:1) containing 10% FCS. 451-Lu (human melanoma) and 451-Lu-BR (PLX4032-resistant melanoma; ref. 32) were maintained in RPMI containing 5% FCS (media for resistant lines contained […] PLX4032). All media were supplemented with 100 U/mL penicillin and […] and all cells were grown at 37° C./5% CO2.
as §1, §2, §3

451Lu-BR = test: as above; format: cell-based; details: Homo sapiens, 72 h, melanoma, 3 days exposure
Description: as §5, §1, §2, §3

[8] = system: Uteral AdenoSarcoma biopsy; test: PDX efficacy study with Afinitor (Examples 4 and 5); details: phase I
Description: Treatments and Procedures
Treatment groups included: • 1. Control: 20% HPbCD 50 ul IP, qod (6 mice). • 2. […] Afinitor 5 mg/kg PO, qod (15 mice). • 4. Afinitor 5 mg/kg PO (qod)+Compound D 70 mg/kg IV (qod), 6 mice. Afinitor was administered ˜4 hr following Compound D.
All treatments were initiated simultaneously on day0.
The length (l) and the width (w) of the tumors were measured every other day and the volumes of the tumors were calculated as follows: v=lw^2/2.
Following treatments described in phase I (example 4), the mice whose tumors reached the end point were sacrificed, and the following treatments were continued.
• 1. The Afinitor-responder group (group A, open squares) was administered with Afinitor 5 mg/kg PO, qd (8 mice). • 2. The combined treatment group (open circles) continued to get the Afinitor 5 mg/kg PO (qod)+Compound D 70 mg/kg IV (qod) treatment (6 mice). Afinitor was administered ˜4 hr following Compound D. Phase III:
The group was divided to two groups of 4 mice each which received the following treatments on day6 onwards: • The first continued to get Afinitor 5 mg/kg PO, qd (4 mice) • and the second got Afinitor 5 mg/kg PO (qod)+Compound D 70 mg/kg IV (qod) combined treatment (4 mice). Afinitor was administered ˜4 hr following Compound D.

[9] = system: pStat3 in A375, 451-Lu, Mel1617 cells; test: Immunoblot of basal and PLX4032-induced pStat3 in PLX4032-sensitive melanoma cells; format: cell-based, human; details: PLX4032 1 μM added 3-4 hr after the compounds (FIG. 7C-E, 8A)
Description: FIGS. 7A-7E. […] FIG. 7A. […] FIG. 7B. […] Cells from patients were grown in complete medium and immunoblotted as described above. […] Compounds A/D block the basal and the PLX4032-induced pStat3. Treatment of PLX4032-sensitive human melanoma A375 (C), 451-Lu (D) or Mel1617 (E) cells with 1 μM PLX4032 for 18-24 hr induces a dramatic increase in pStat3. Compounds A (FIG. 7C, D) or D (FIG. 7E) block both the basal and the PLX4032-induced pStat3. OSI-906, an ATP-competitive inhibitor of IGF1R, has no effect on pStat3.
as §4

[10] = system: phospho-Y705 Stat3 (pSTAT3) in melanoma A375 cells; test: Immunoblot of Stat3 Y705-phosphorylation in intact cells; format: cell-based, human; details: Homo sapiens, A-375
Description: FIGS. 6A-6E. […] A. Human melanoma A375 cells were treated with the indicated concentrations of compounds A or D for 1.3 and 4.5 hr. Cells were lysed and immunoblotted with antibodies against phospho-Y705 Stat3 (pSTAT3) and Stat3. […] B. Cells were treated with 2 μM Compound A and lysed following the indicated times. C. A375 cells were treated with compound D for 4 hr, then washed with medium several times and lysed after 4, 24 and 48 hr of incubation without inhibitors.
as §4

SMILES: Nc1ccn([C@@H]2O[C@H](CO)[C@@H](O)C2(F)F)c(=O)n1 [Gemcitabine]
- average tumor size on day21 ([1]; Gemcitabine 25 mg/kg IP twice a week, control 1400 mm^3): ~5 mm^3
- tumor response on day11 ([1]; Gemcitabine 25 mg/kg IP twice a week, start 90 mm^3): all tumors in Gemcitabine-treated mice regressed
- response of Gemcitabine-resistant tumors ([1]; start ~110 mm^3, after resistance was acquired): all tumors treated with Gemcitabine progressed
- time from initiation of treatment until resistance developed ([1]; treated for 35 days): 42 days
- proliferative activity of cultured tumor pieces [2]: massive proliferation

SMILES: Oc1cc(CNC(=S)/C=C/c2ccc(O)c(O)c2Br)cc(O)c1O [Compound D]
- tumor response, first phase [3]: moderate tumor growth inhibition
- IC50 (HCT15): 800 nM
- tumor response (tumor volume) [4]: has not responded
- IC50 (Mel1617-Pa): 200 nM
- IC50 (Mel1617-BR): 300 nM
- effect on tumor growth [5]: no effect on tumor growth
- tumor response while on treatment (HNSCC tumor biopsy): aggressively progressed
- IC50 (HepG2): 700 nM
- IC50 (PC3): 500 nM
- effect on Stat3 phosphorylation in PLX4032-resistant melanoma cells ([6]; 451-LU-BR, Mel1617-BR, patient cells M2068 and M571 (FIG. 8A-C)): block Stat3 phosphorylation completely
- relative activity on pStat3 in melanoma cells from patients who acquired resistance to PLX4032 ([6]; FIG. 8C): better activity of compound D compared with compound A
- IC50 (MM1S): 200 nM
- effect on tumor growth [7]: No effect on tumor growth
- cell apoptosis after short exposure (A375 melanoma cells): sufficient to induce cell apoptosis 24 and 48 hr later
- IC50 (451Lu-Pa): 300 nM
- IC50 (451Lu-BR): 600 nM
- responder mice [8]: none of the mice responded
- effect on tumor growth ([8]; four days, Afinitor 5 mg/kg PO, Compound D 70 mg/kg IV): no significant effect on tumor growth
- effect on basal and PLX4032-induced pStat3 levels [9]: block both the basal and the PLX4032-induced levels of pStat3
- IC50 ([10]; A375 cells, 1.3 hr post-treatment (FIG. 6A), read-out: IC50 of inhibition of Stat3 phosphorylation (pStat3)): ~2000 nM
- IC50 ([10]; A375 cells, 3 hr later (4.5 hr treatment, FIG. 6A), read-out: IC50 of inhibition of Stat3 phosphorylation (pStat3)): < 1000 nM
- IC50 ([10]; FIG. 6D, read-out: IC50 of dose-dependent inhibition of pStat3): < 1000 nM
